Experimental data published in patent publication US20080058213A1, “Benzoxazole Compounds” (priority 2004, published 2008).

Legend:
Type in all cases: in vivo
[1] = test system: common lambsquaters; experiment: Foliage treatment test for upland field (Test Example 3): common lambsquaters; conditions: foliage treatment at 1.0-2.0 leaf stage of southern crabgrass, examined after 3 weeks
Description: (§1) Evaluation of the herbicidal effect is shown in the following six grades, by comparing the condition of untreated control and growth inhibition (%): • 0: 0%-less than 20% • 1: 20%-less than 40% • 2: 40%-less than 60% • 3: 60%-less than 80% • 4: 80%-less than 100% • 5: 100%.
(§2) Compost mixed soil was filled in 1/3,000 are pots, seeded with southern crabgrass, common lambsquaters, slender amaranth, common purslane, velvetleaf, wheat, corn and soybean. The seeds were covered up with the soil and cultured in a glasshouse kept at 25° C. on the average.
(§3) Wettable powders containing the object compounds (1) as identified in Table 1, which were formulated following Preparation Example 2, were diluted with water to the prescribed dose of the active ingredient, and uniformly sprayed onto the weeds at 1.0-2.0 leaf stage of the southern crabgrass at an application water of 15 liters per are.
(§4) After placing the test pots in a grasshouse kept at 25° C. on the average for 3 weeks, the herbicidal effect was examined.
(§5) Evaluation of the herbicidal effect was conducted in the similar manner to Test Example 1.

[2] = test system: velvetleaf (Abutilon theophrasti); experiment: Soil treatment test for upland field (Test Example 2): velvetleaf; conditions: soil treatment before germination, examined after 3 weeks
Description: as §1
(§6) Upland field soil was filled in 1/3,000 are pots, seeded with southern crabgrass (Digitaria ciliaris), common lambsquaters (Chenopodium album), slender amaranth (Amaranthus viridis), common purslane (Portulaca oleracea), velvetleaf (Abutilon theophrasti), wheat, corn and soybean. The seeds were covered up with the soil.
(§7) Wettable powders containing the object compounds (1) as identified in Table 1, which were formulated following Preparation Example 2, were diluted with adequate amount of water to secure the prescribed dose of the active ingredient, and uniformly sprayed onto the surface soil layer after the seeding and before germination of the weeds, at an application water of 15 liters per are.
(§8) After placing the test pots in a glasshouse which was kept at an average temperature of 25° C. for 3 weeks, the herbicidal effect was examined.
(§9) Evaluations of the herbicidal effect and phytotoxicity were made in the manner similar to those in the above Test Example 1.

[3] = test system: slender amaranth; experiment: Foliage treatment test for upland field (Test Example 3): slender amaranth; conditions: foliage treatment at 1.0-2.0 leaf stage of southern crabgrass, examined after 3 weeks
Description: as §1, §2, §3, §4, §5

[4] = test system: southern crabgrass (Digitaria ciliaris); experiment: Soil treatment test for upland field (Test Example 2): southern crabgrass; conditions: soil treatment before germination, examined after 3 weeks
Description: as §1, §6, §7, §8, §9

[5] = test system: wheat; experiment: Soil treatment test for upland field (Test Example 2): phytotoxicity to wheat; conditions: soil treatment before germination, examined after 3 weeks
Description: (§10) Evaluation of phytotoxicity is shown in the following six grades, as compared with the condition of untreated control: • 0: normal growth • 1: little damaged • 2: low damaged • 3: medium damaged • 4: serious damaged • 5: complete killed.
as §6, §8

[6] = test system: slender amaranth (Amaranthus viridis); experiment: Soil treatment test for upland field (Test Example 2): slender amaranth; conditions: soil treatment before germination, examined after 3 weeks
Description: as §1, §6, §7, §8, §9

[7] = test system: corn; experiment: Foliage treatment test for upland field (Test Example 3): phytotoxicity to corn; conditions: foliage treatment at 1.0-2.0 leaf stage of southern crabgrass, examined after 3 weeks
Method: as §10, §2, §4

[8] = test system: southern crabgrass; experiment: Foliage treatment test for upland field (Test Example 3): southern crabgrass; conditions: foliage treatment at 1.0-2.0 leaf stage of southern crabgrass, examined after 3 weeks
Description: as §1, §2, §3, §4, §5

[9] = test system: soybean; experiment: Foliage treatment test for upland field (Test Example 3): phytotoxicity to soybean; conditions: foliage treatment at 1.0-2.0 leaf stage of southern crabgrass, examined after 3 weeks
Method: as §10, §2, §4

[10] = test system: common purslane (Portulaca oleracea); experiment: Soil treatment test for upland field (Test Example 2): common purslane; conditions: soil treatment before germination, examined after 3 weeks
Description: as §1, §6, §7, §8, §9

[11] = test system: corn; experiment: Soil treatment test for upland field (Test Example 2): phytotoxicity to corn; conditions: soil treatment before germination, examined after 3 weeks
Description: as §10, §6, §8

[12] = test system: wheat; experiment: Foliage treatment test for upland field (Test Example 3): phytotoxicity to wheat; conditions: foliage treatment at 1.0-2.0 leaf stage of southern crabgrass, examined after 3 weeks
Method: as §10, §2, §4

[13] = test system: common lambsquaters (Chenopodium album); experiment: Soil treatment test for upland field (Test Example 2): common lambsquaters; conditions: soil treatment before germination, examined after 3 weeks
Description: as §1, §6, §7, §8, §9

[14] = test system: common purslane; experiment: Foliage treatment test for upland field (Test Example 3): common purslane; conditions: foliage treatment at 1.0-2.0 leaf stage of southern crabgrass, examined after 3 weeks
Description: as §1, §2, §3, §4, §5

[15] = test system: velvetleaf; experiment: Foliage treatment test for upland field (Test Example 3): velvetleaf; conditions: foliage treatment at 1.0-2.0 leaf stage of southern crabgrass, examined after 3 weeks
Description: as §1, §2, §3, §4, §5

[16] = test system: soybean; experiment: Soil treatment test for upland field (Test Example 2): phytotoxicity to soybean; conditions: soil treatment before germination, examined after 3 weeks
Description: as §10, §6, §8

Row | Compound | Herbicidal Effect Common lambsquatters ([1]; dose 2.5 g ai/a) | Herbicidal Effect Common lambsquatters ([1]; dose 5 g ai/a) | Herbicidal Effect velvetleaf ([2]; dose 2.5 g ai/a) | Herbicidal Effect velvetleaf ([2]; dose 5 g ai/a) | Herbicidal Effect slender amaranth ([3]; dose 2.5 g ai/a) | Herbicidal Effect slender amaranth ([3]; dose 5 g ai/a) | Herbicidal Effect southern crabgrass ([4]; dose 2.5 g ai/a) | Herbicidal Effect southern crabgrass ([4]; dose 5 g ai/a) | Phytotoxicity wheat ([5]; dose 2.5 g ai/a) | Phytotoxicity wheat ([5]; dose 5 g ai/a) | Herbicidal Effect slender amaranth ([6]; dose 2.5 g ai/a) | Herbicidal Effect slender amaranth ([6]; dose 5 g ai/a) | Herbicidal Effect common purslane ([10]; dose 2.5 g ai/a) | Herbicidal Effect common purslane ([10]; dose 5 g ai/a) | Phytotoxicity corn ([11]; dose 2.5 g ai/a) | Phytotoxicity corn ([11]; dose 5 g ai/a) | Herbicidal Effect common lambsquaters ([13]; dose 2.5 g ai/a) | Herbicidal Effect common lambsquaters ([13]; dose 5 g ai/a) | Phytotoxicity soybean ([16]; dose 2.5 g ai/a) | Phytotoxicity soybean ([16]; dose 5 g ai/a) | also measured
1 | COCC(=Cc1cccc(C(F)(F)F)c1)c1nc2cc(OC(F)(F)F)ccc2o1 [Compound 46] | 5 (100%) | 5 (100%) | 4 (80%-less than 100%) | 5 (100%) | 5 (100%) | 5 (100%) | 4 (80%-less than 100%) | 5 (100%) | 0 | 0 | 5 (100%) | 5 (100%) | 5 (100%) | 5 (100%) | 0 | 1 | 5 (100%) | 5 (100%) | 0 | 1 | Phytotoxicity corn ([7]; dose 2.5 g ai/a): 0; Phytotoxicity corn ([7]; dose 5 g ai/a): 1; Herbicidal Effect southern crabgrass ([8]; dose 2.5 g ai/a): 4 (80%-less than 100%); Herbicidal Effect southern crabgrass ([8]; dose 5 g ai/a): 5 (100%); Phytotoxicity soybean ([9]; dose 2.5 g ai/a): 1; Phytotoxicity soybean ([9]; dose 5 g ai/a): 1; Phytotoxicity wheat ([12]; dose 2.5 g ai/a): 0; Phytotoxicity wheat ([12]; dose 5 g ai/a): 1; Herbicidal Effect common purslane ([14]; dose 2.5 g ai/a): 5 (100%); Herbicidal Effect common purslane ([14]; dose 5 g ai/a): 5 (100%); Herbicidal Effect velvetleaf ([15]; dose 2.5 g ai/a): 4 (80%-less than 100%); Herbicidal Effect velvetleaf ([15]; dose 5 g ai/a): 5 (100%)
2 | CSCC(=Cc1cccc(C(F)(F)F)c1)c1nc2cc(C(F)(F)F)ccc2o1 [Compound 82] | 5 (100%) | 5 (100%) | 2 (40%-less than 60%) | 2 (40%-less than 60%) | 5 (100%) | 5 (100%) | 3 (60%-less than 80%) | 3 (60%-less than 80%) | 0 | 0 | 5 (100%) | 5 (100%) | 5 (100%) | 5 (100%) | 0 | 0 | 5 (100%) | 5 (100%) | 0 | 0 | Phytotoxicity corn ([7]; dose 2.5 g ai/a): 0; Phytotoxicity corn ([7]; dose 5 g ai/a): 1; Herbicidal Effect southern crabgrass ([8]; dose 2.5 g ai/a): 4 (80%-less than 100%); Herbicidal Effect southern crabgrass ([8]; dose 5 g ai/a): 4 (80%-less than 100%); Phytotoxicity soybean ([9]; dose 2.5 g ai/a): 1; Phytotoxicity soybean ([9]; dose 5 g ai/a): 1; Phytotoxicity wheat ([12]; dose 2.5 g ai/a): 0; Phytotoxicity wheat ([12]; dose 5 g ai/a): 0; Herbicidal Effect common purslane ([14]; dose 2.5 g ai/a): 5 (100%); Herbicidal Effect common purslane ([14]; dose 5 g ai/a): 5 (100%); Herbicidal Effect velvetleaf ([15]; dose 2.5 g ai/a): 2 (40%-less than 60%); Herbicidal Effect velvetleaf ([15]; dose 5 g ai/a): 3 (60%-less than 80%)
3 | CCSCC(=Cc1cccc(C(F)(F)F)c1)c1nc2cc(C(F)(F)F)ccc2o1 [Compound 84] | 4 (80%-less than 100%) | 5 (100%) | 2 (40%-less than 60%) | 2 (40%-less than 60%) | 5 (100%) | 5 (100%) | 3 (60%-less than 80%) | 3 (60%-less than 80%) | 0 | 0 | 4 (80%-less than 100%) | 5 (100%) | 5 (100%) | 5 (100%) | 0 | 0 | 5 (100%) | 5 (100%) | 0 | 0 | Phytotoxicity corn ([7]; dose 2.5 g ai/a): 0; Phytotoxicity corn ([7]; dose 5 g ai/a): 1; Herbicidal Effect southern crabgrass ([8]; dose 2.5 g ai/a): 4 (80%-less than 100%); Herbicidal Effect southern crabgrass ([8]; dose 5 g ai/a): 4 (80%-less than 100%); Phytotoxicity soybean ([9]; dose 2.5 g ai/a): 0; Phytotoxicity soybean ([9]; dose 5 g ai/a): 0; Phytotoxicity wheat ([12]; dose 2.5 g ai/a): 0; Phytotoxicity wheat ([12]; dose 5 g ai/a): 0; Herbicidal Effect common purslane ([14]; dose 2.5 g ai/a): 4 (80%-less than 100%); Herbicidal Effect common purslane ([14]; dose 5 g ai/a): 5 (100%); Herbicidal Effect velvetleaf ([15]; dose 2.5 g ai/a): 2 (40%-less than 60%); Herbicidal Effect velvetleaf ([15]; dose 5 g ai/a): 3 (60%-less than 80%)
4 | COCC(=Cc1cccc(C(F)(F)F)c1)c1nc2cc(C#N)c(F)cc2o1 [Compound 117] | 5 (100%) | 5 (100%) | – | – | 5 (100%) | 5 (100%) | – | – | – | – | – | – | – | – | – | – | – | – | – | – | Phytotoxicity corn ([7]; dose 2.5 g ai/a): 0; Phytotoxicity corn ([7]; dose 5 g ai/a): 1; Herbicidal Effect southern crabgrass ([8]; dose 2.5 g ai/a): 4 (80%-less than 100%); Herbicidal Effect southern crabgrass ([8]; dose 5 g ai/a): 5 (100%); Phytotoxicity soybean ([9]; dose 2.5 g ai/a): 0; Phytotoxicity soybean ([9]; dose 5 g ai/a): 1; Phytotoxicity wheat ([12]; dose 2.5 g ai/a): 0; Phytotoxicity wheat ([12]; dose 5 g ai/a): 0; Herbicidal Effect common purslane ([14]; dose 2.5 g ai/a): 5 (100%); Herbicidal Effect common purslane ([14]; dose 5 g ai/a): 5 (100%); Herbicidal Effect velvetleaf ([15]; dose 2.5 g ai/a): 4 (80%-less than 100%); Herbicidal Effect velvetleaf ([15]; dose 5 g ai/a): 5 (100%)
5 | CCOCC(=Cc1cccc(C(F)(F)F)c1)c1nc2cc(F)c(F)cc2o1 [Compound 127] | – | – | 3 (60%-less than 80%) | 5 (100%) | – | – | 4 (80%-less than 100%) | 5 (100%) | 0 | 0 | 5 (100%) | 5 (100%) | 5 (100%) | 5 (100%) | 0 | 0 | 5 (100%) | 5 (100%) | 0 | 0 | –
6 | CCOCC(=Cc1cccc(C(F)(F)F)c1)c1nc2cc(F)c(C(F)(F)F)cc2o1 [Compound 141] | – | – | 3 (60%-less than 80%) | 5 (100%) | – | – | 4 (80%-less than 100%) | 5 (100%) | 0 | 1 | 5 (100%) | 5 (100%) | 5 (100%) | 5 (100%) | 0 | 0 | 5 (100%) | 5 (100%) | 0 | 0 | –
